Test results published in PubChem BioAssay AID493064 (Broad Institute, 2011).
Several values for one entry are separate records, joined by “and”; a condition that tells them apart may be missing. Equal entries are not always repeated. Records with an inconclusive call do not appear. Activity calls are given as the source filed them. No rule for the calls is given here.

What was measured:
[1] = tested on: C. albicans CaCi-8 + fluconazole, Alamar Blue growth, 48 h; experiment: PubChem AID 493064
PubChem AID 493064 = conditions: C. albicans CaCi-8 + fluconazole, Alamar Blue growth, 48 h; at 26 µM (top of the series)

Row | Structure (SMILES) | AC50 [1] | activity change, negative = inhibition (PubChem AID 493064)
1 | COC(=O)Cn1nc(-c2ccccc2)c2ccccc21 | 3.13 µM | –
2 | CCN(CC)C(=O)Cn1c2ccccc2c2nc3n(c(=O)c21)CCS3 | – | 8.8% (inactive) and 7.89% (inactive)
3 | CCOC(=O)c1c2ccccc2nn1Cc1ccc(Cl)cc1 | – | 5.94% (inactive)
4 | CCCCC(=O)N1CCN(c2ccccn2)CC1 | – | -12.5% (inactive)
5 | O=C(Cn1c2ccc(F)cc2c2nc3n(c(=O)c21)CCS3)N1CCCCC1 | – | 8.36% (inactive)
6 | O=C(O)Cn1nc(-c2ccccc2)c2ccccc21 | – | -17.8% (inactive)
7 | O=C(Cn1nc(C(=O)N2CCCCC2)c2ccccc21)N1CCOCC1 | – | -1.16% (inactive)
8 | O=C(c1cccc(Cl)c1)N1CCN(c2ccccn2)CC1 | – | -1.33% (inactive)
9 | Cc1ccnc(N2CCN(C(=O)c3ccc(Cl)cc3)CC2)c1 | – | -6.71% (inactive)
10 | CC1CCN(C(=O)Cn2c3ccccc3c3nc4n(c(=O)c32)CCS4)CC1 | 8.88 µM | –
11 | COc1ccc(C(=O)N2CCN(c3ccccn3)CC2)cc1 | 7.53 µM | –
12 | O=C(c1ccc(Cl)cc1)N1CCN(c2cccc(C(F)(F)F)n2)CC1 | – | -8.21% (inactive)
13 | N#Cc1ccc(N2CCN(C(=O)c3ccc(Cl)cc3)CC2)nc1 | > 26 µM (inactive) | –
14 | CC(C)C(=O)N1CCN(c2ccccn2)CC1 | – | -2.77% (inactive)
15 | O=C(Cn1nc(-c2ccccc2)c2cc(Cl)ccc21)N1CCOCC1 | > 26 µM (inactive) | –
16 | O=C(Cn1nc(-c2ccccc2)c2ccccc21)NCc1ccc(Cl)cc1 | – | -6.6% (inactive)
17 | O=C(O)c1nn(Cc2ccc(Cl)cc2)c2ccccc12 | > 26 µM (inactive) | –
18 | COC(=O)Cn1nc(C)c2ccccc21 | – | -17.2% (inactive)
19 | O=C(c1ccc(Cl)cc1)N1CCN(c2nc3ccccc3s2)CC1 | 4.94 µM | –
20 | COC(=O)Cn1c(-c2ccccc2)nc2ccccc21 | – | -13.8% (inactive)
